“Also recorded” adds a separate entry of the source.
Experiments:
[1] = tested on: promoter of the neuronal precursor specific gene doublecortin (DCX); experiment: DCX promoter firefly-luciferase assay in primary fetal mouse brain derived (MEF) cells; assay type: cell-based; conditions: for effect on DCX promoter induction: 10 μM, MEF cells, three days; for stimulatory effect on the DCX promoter activity (FF/R relative to control): DCX promoter-luciferase transfected MEF cells, stimulated three days
Method: Primary mouse embryonic day 16 forebrain (MEF) cultures were prepared as follows. Pregnant NMRI mice (Charles River Laboratories, Sulzfeld, Germany) were sacrificed and the uteri promptly removed and immersed in ice-cold Dulbecco's phosphate buffered saline solution—DPBS (PAA, Pasching, Austria). Eight embryonic day (E) 16 embryos were released from the uteri; forebrains were taken out, separated from surrounding tissues and mechanically dissociated using a razor blade. Subsequently the dissociated cells were collected by 5 min centrifugation at 120×g. The pellet was resuspended in 10 ml PPD-solution containing 0.01% papain (Worthington, England), 0.1% Dispasell (Roche, Basel, Switzerland), 0.01% DNasel (Worthington, England), 12.4 mM MgSO4 dissolved in HBSS w/o Ca/Mg (PAA, Pasching, Austria). The cell suspension was incubated at 37° C. and triturated every ten minutes for three times. The cell suspension was then centrifuged at 120×g for 5 minutes and washed three times in Neurobasal medium (Gibco BRL, Germany) supplemented with 2% (v/v) B27 (Gibco BRL, Karlsruhe), 2 mM L-glutamine, 100 μg/ml Penicillin/Streptomycin (PAN Biotech GmbH, Aidenbach, Germany). Finally, the cell preparation was resuspended in 12 ml Neurobasal medium supplemented with B27 (Gibco BRL, Karlsruhe), 2 mM L-glutamine, 100 μg/ml Penicillin/Streptomycin (PAN Biotech GmbH, Aidenbach, Germany), 20 ng/ml Epidermal Growth Factor—rhEGF, 20 ng/ml Fibroblast Growth Factor—rhFGF (R&D Systems, Wiesbaden-Nordenstadt, Germany) and 2 μg/ml Heparin (Sigma-Aldrich, Taufkirchen, Germany) (NB plus all), seeded in one T75 flask (TPP, Switzerland) and maintained in a humidified atmosphere at 37° C. and 5% CO2. […] On this day (day 2), half of the medium was refreshed and on day 4 cells were passaged. To passage the cells, the culture medium containing the floating neurospheres was collected in a 15 ml tube (Corning, Lowell, USA) and centrifuged at 120×g for 5 min. For dissociation, the pellet was resuspended in 500 μl Accutase (PAA, Pasching, Austria) and triturated using a 1 ml pipette. The cell suspension was incubated at 37° C. for 10 min, and then, 10 ml media were added. Cell number was determined by Trypan blue exclusion.
Luciferase assays were performed using a noncommercial dual luciferase enzyme assay system (Dyer et al., 2000, Anal Biochem). In this system, a co-transfection with pDCX-Luci and a control vector driving Renilla-luciferase under the CMV promoter was performed. The two different luciferases have different specific substrates and, therefore, the DCX regulatory region driven firefly luciferase activity can be distinguished from CMV driven Renilla-luciferase. For analysis, the firefly luciferase activity was normalized against the CMV driven Renilla-luciferase. For each transfection reaction, a volume containing two million cells was transferred into a 15 ml tube (Corning, Lowell, USA), centrifuged at 120×g for 5 min to pellet the cells and resuspended in 100 μl Amaxa Mouse Neural Stem Cell Nucleofector Kit (Lonza, Kln, Germany). Then, pDCX-Luci (Karl, 2005) and pRL3 (Promega, Mannheim, Germany) (5 μg each) were added and the entire reaction mix was transferred into an Amaxa transfection cuvette. Transfection was done using the A-033 program in the Amaxa Nucleofector II (Lonza, Kln, Germany). Transfected cells were then pipetted into 20 ml of DMEM knockout medium (Gibco BRL, Germany) containing 20% serum replacement supplement (PAN Biotech GmbH, Aidenbach, Germany), 2 mM L-glutamine (PAN Biotech GmbH, Aidenbach, Germany) and 100 μg/ml Penicillin/Streptomycin (PAN Biotech GmbH, Aidenbach, Germany) (DMEM-KO plus supplements) in a 50 ml tube (Corning, Lowell, USA). From this resulting cell suspension, 200 μl per well were plated in Poly-Ornithine/Laminin coated 96-well-luciferase plates (Wimmer & Macho, Wels, Austria) in a cell density of 20.000 cells per well, as described herein below.

PC12 cells = experiment: PC12 cobalt-chloride stress test, Caspase 3/7 activation; assay type: cell-based, rat; conditions: CoCl2 300 μM, 24 hours; compounds 10 μM, NGF 50 ng/ml; FIG. 7A
Method: For the neuroprotection assay PC12 cells were stressed with cobalt chloride 300 μM for 24 hours and the activity of Caspase 3/7 and LDH release were measured. NGF 50 ng/ml was used as a positive control for Caspase 3/7 activity and NGF 100 ng/ml was used as a positive control for LDH release.
For the PC12-CoCl2-Assay PC12 cells were used (ATCC: CRL-1721 ™). These cells were growing in RPMI supplemented with 10% Horse Serum (heat inactivated) (Sigma Aldrich, Taufkirchen, Germany), 5% Fetal Bovine Serum (Lonza, Wuppertal, Germany), 2.5% Penicillin/Streptomycin and Glutamine (PAA, Pasching, Austria) as adherent cultures when the plates are coated with Poly-L-ornithine ([…] in water) for at least one hour at 37° C. For passaging PC12-cells were resuspended with Accutase (PAA, Pasching, Austria) for 10 minutes at 37° C. once a week.
For all experiments cells were plated (quadruplicates) on Poly-L-ornithine-coated 96-well plates at a density of 10^4 cells per well. For Caspase 3/7-measurement cells were seeded in a white 96-well-plate to detect luminescence. As positive-control for neuroprotection Nerve Growth Factor (NGF) (50 ng/ml and 100 ng/ml) was used. To induce hypoxia CoCl2 (300 μM) was added to the cells after 20-24 hours. The control-treatment was compound 1a (ENDF1), compound 1b (ENDF3), compound 3a (ENDF2), ENDF4 or Osajin in the concentrations 1 μM and 10 μM in proliferation-media without CoCl2.
For Caspase 3/7-activation Caspase 3/7 substrate was added to the cells in an equal amount 22 hours after stimulation. Plates are incubated for 2 hours at room temperature in the dark, luminescence was measured 24 hours after stimulation and the blank-values are subtracted.

COc1cc2c(c(O)c1C(=O)/C=C/c1ccc(O)cc1)C=CC(C)(C)O2 [Compound 1a, (E)-1-(5-hydroxy-7-methoxy-2,2-dimethyl-2H-chromen-6-yl)-3-(4-hydroxyphenyl)prop-2-en-1-one]
effect on DCX promoter induction [1]: significantly higher than those exerted by the reference compounds | stimulatory effect on the DCX promoter activity (FF/R relative to control) [1]: significantly and strongly induce; also recorded: very strong and significant stimulatory effect | protection from CoCl2 induced Caspase 3/7 activity (PC12 cells): partially protected; also recorded: significant neuroprotective effect similar to NGF

COc1cc2c(c(O)c1C(=O)/C=C/c1ccc(O)cc1)CCC(C)(C)O2 [Compound 1b, (E)-1-(5-hydroxy-7-methoxy-2,2-dimethylchroman-6-yl)-3-(4-hydroxyphenyl)prop-2-en-1-one]
effect on DCX promoter induction [1]: significantly higher than those exerted by the reference compounds | stimulatory effect on the DCX promoter activity (FF/R relative to control) [1]: significantly and strongly induce; also recorded: very strong and significant stimulatory effect | protection from CoCl2 induced Caspase 3/7 activity (PC12 cells): partially protected; also recorded: significant neuroprotective effect similar to NGF

— US9956199B2, “Chromane-like cyclic prenylflavonoids for the medical intervention in neurological disorders” (priority 2011, dated 2018)
